Literature values in patent US20130178603A1, “MULTI-MODE CANCER TARGETED NANOPARTICULATE SYSTEM AND A METHOD OF SYNTHESIZING THE SAME” (priority 2012, published 2013).

Details: after I.V administration

mean distribution half-life: 1.5 to 3.5 h
Compound: CN(Cc1cnc2nc(N)nc(N)c2n1)c1ccc(C(=O)N[C@@H](CCC(=O)O)C(=O)O)cc1 [MTX, methotrexate]
